In US20080200403A1, “9A-Carbamoyl and Thiocarbamoyl Azalides with Anti-Inflammatory Activity” (GLAXOSMITHKLINE, priority 2005, published 2008):
Read-outs that look alike come from different tables or passages of the source.

Columns and labels:
Type in all cases: cell-based
IL-8 = assay: Inhibition of IL-8 production by stimulated human peripheral blood leukocytes in vitro; conditions: PBL; for inhibition at 10 µM / inhibition at 50 µM: Homo sapiens, Leukocyte, read-out: Percentage of inhibition of IL-8 production
Outline: (§1)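 Dextran-isolated human PBL (3-5×10^6 per well) in RPMI with 10% FCS were preincubated 2 h at 37 °C with compounds at 50 μM or 10 μM final, then stimulated overnight with 2 μg/mL LPS, 1 μg/mL PMA or 120 μg/mL zymosan. Supernatant cytokines by sandwich ELISA; % inhibition versus stimulated untreated control.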

IL-1α = assay: Inhibition of IL-1 production by stimulated human peripheral blood leukocytes in vitro; conditions: PBL; for inhibition at 10 µM / inhibition at 50 µM: Homo sapiens, Leukocyte, read-out: Percentage of inhibition of IL-1α production
[1] = test system: human peripheral blood mononuclear cells (PBMC); assay: Human T-cell proliferation in vitro (3H-thymidine incorporation); conditions: for inhibition at 10 µM / inhibition at 50 µM: Homo sapiens, PBMC, read-out: Percentage of inhibition of proliferation of stimulated PBMC
Protocol: Influence of substances at two different concentrations (50 μM and 10 μM) on cell proliferation of human peripheral blood mononuclear cells (PBMC) was assessed.
Heparinized peripheral blood was obtained from healthy donors, and PBMC were isolated by Histopaque 1077 (Sigma, USA) density centrifugation at 400×g for 30 minutes. 5×10^4 cells/well were cultured for 3 days in the RPMI medium as described above, in the presence (positive control) or absence (negative control) of stimulators [PHA (2.5 μg/mL) (Sigma, USA), or both PMA (10 ng/mL) (Sigma, USA) and ionomycin (500 ng/mL) (Calbiochem, USA)], and in the presence of the test compounds, at 37° C. in an atmosphere of 5% CO2 and 90% humidity. The cells were pulsed with 1 μCi of ^3H-thymidine (Amersham, USA) per well during the last 18 h of the culture, and were harvested on the 96-well filter (Packard Bioscience, USA) using a multiple cell harvester (Packard, USA). The incorporation of ^3H-thymidine in activated cells were measured using TopCount NXT (Packard, USA).
Inhibition (as percentage) was calculated using the following formula: % inhibition=(1−(^3H)thymidine incorporation expressed in counts per minute (cpm) in sample/(^3H)thymidine incorporation expressed in cpm in positive control)×100
where positive control refers to stimulated samples, not treated with substances.

TNF-α = assay: Inhibition of TNF-α production by stimulated human peripheral blood leukocytes in vitro; conditions: PBL; for inhibition at 10 µM / inhibition at 50 µM: Homo sapiens, Leukocyte, read-out: Percentage of inhibition of TNF-α production
Outline: as §1

IL-6 = assay: Inhibition of IL-6 production by stimulated human peripheral blood leukocytes in vitro; conditions: PBL; for inhibition at 10 µM / inhibition at 50 µM: Homo sapiens, Leukocyte, read-out: Percentage of inhibition of IL-6 production
Outline: as §1

[2] = zymosan stimulated, compound 10 μM
[3] = zymosan stimulated, compound 50 μM
[4] = PMA + ionomycin stimulated, compound 10 μM
[5] = PMA + ionomycin stimulated, compound 50 μM

## CCC1OC(=O)C(C)C(O)C(C)C(OC2OC(C)CC(N(C)C)C2O)C(C)(O)CC(C)CN(C(=S)NCc2ccccc2)C(C)C(O)C1(C)O (stereo not drawn) [Compound 1]
IL-8; LPS stimulated, compound 10 μM
  Percentage of inhibition of IL-8 production: 40%
IL-8; LPS stimulated, compound 50 μM
  Percentage of inhibition of IL-8 production: 0%
IL-8; PMA stimulated, compound 10 μM
  Percentage of inhibition of IL-8 production: 4%
IL-8; PMA stimulated, compound 50 μM
  Percentage of inhibition of IL-8 production: 0%
IL-8; [2]
  Percentage of inhibition of IL-8 production: 12%
IL-8; [3]
  Percentage of inhibition of IL-8 production: 79%
IL-1α; LPS stimulated, compound 10 μM
  Percentage of inhibition of IL-1α production: 52%
IL-1α; LPS stimulated, compound 50 μM
  Percentage of inhibition of IL-1α production: 78%
IL-1α; PMA stimulated, compound 10 μM
  Percentage of inhibition of IL-1α production: 38%
IL-1α; PMA stimulated, compound 50 μM
  Percentage of inhibition of IL-1α production: 47%
IL-1α; [2]
  Percentage of inhibition of IL-1α production: 65%
IL-1α; [3]
  Percentage of inhibition of IL-1α production: 57%
[1]; PHA stimulated, compound 10 μM
  Percentage of inhibition of proliferation of stimulated PBMC: 21%
[1]; PHA stimulated, compound 50 μM
  Percentage of inhibition of proliferation of stimulated PBMC: 95%
[1]; [4]
  Percentage of inhibition of proliferation of stimulated PBMC: 10%
[1]; [5]
  Percentage of inhibition of proliferation of stimulated PBMC: 52%
TNF-α; LPS stimulated, compound 10 μM
  Percentage of inhibition of TNF-α production: 0%
TNF-α; LPS stimulated, compound 50 μM
  Percentage of inhibition of TNF-α production: 33%
TNF-α; PMA stimulated, compound 10 μM
  Percentage of inhibition of TNF-α production: 2%
TNF-α; PMA stimulated, compound 50 μM
  Percentage of inhibition of TNF-α production: 37%
TNF-α; [2]
  Percentage of inhibition of TNF-α production: 34%
TNF-α; [3]
  Percentage of inhibition of TNF-α production: 72%
IL-6; LPS stimulated, compound 10 μM
  Percentage of inhibition of IL-6 production: 4%
IL-6; LPS stimulated, compound 50 μM
  Percentage of inhibition of IL-6 production: 22%
IL-6; PMA stimulated, compound 10 μM
  Percentage of inhibition of IL-6 production: 22%
IL-6; PMA stimulated, compound 50 μM
  Percentage of inhibition of IL-6 production: 21%
IL-6; [2]
  Percentage of inhibition of IL-6 production: 23%
IL-6; [3]
  Percentage of inhibition of IL-6 production: 59%

## CCC1OC(=O)C(C)C(OC2CC(C)(OC)C(O)C(C)O2)C(C)C(OC2OC(C)CC(N(C)C)C2O)C(C)(O)CC(C)CN(C(=S)Nc2cccc(F)c2)C(C)C(O)C1(C)O (stereo not drawn) [Compound 3]
IL-8; LPS stimulated, compound 10 μM
  Percentage of inhibition of IL-8 production: 38%
IL-8; LPS stimulated, compound 50 μM
  Percentage of inhibition of IL-8 production: 81%
IL-8; PMA stimulated, compound 10 μM
  Percentage of inhibition of IL-8 production: 61%
IL-8; PMA stimulated, compound 50 μM
  Percentage of inhibition of IL-8 production: 47%
IL-8; [2]
  Percentage of inhibition of IL-8 production: 40%
IL-8; [3]
  Percentage of inhibition of IL-8 production: 88%
IL-1α; LPS stimulated, compound 10 μM
  Percentage of inhibition of IL-1α production: 52%
IL-1α; LPS stimulated, compound 50 μM
  Percentage of inhibition of IL-1α production: 30%
IL-1α; PMA stimulated, compound 10 μM
  Percentage of inhibition of IL-1α production: 4%
IL-1α; PMA stimulated, compound 50 μM
  Percentage of inhibition of IL-1α production: 0%
IL-1α; [2]
  Percentage of inhibition of IL-1α production: 75%
IL-1α; [3]
  Percentage of inhibition of IL-1α production: 74%
[1]; PHA stimulated, compound 10 μM
  Percentage of inhibition of proliferation of stimulated PBMC: 26%
[1]; PHA stimulated, compound 50 μM
  Percentage of inhibition of proliferation of stimulated PBMC: 100%
[1]; [4]
  Percentage of inhibition of proliferation of stimulated PBMC: 23%
[1]; [5]
  Percentage of inhibition of proliferation of stimulated PBMC: 92%
TNF-α; LPS stimulated, compound 10 μM
  Percentage of inhibition of TNF-α production: 45%
TNF-α; LPS stimulated, compound 50 μM
  Percentage of inhibition of TNF-α production: 74%
TNF-α; PMA stimulated, compound 10 μM
  Percentage of inhibition of TNF-α production: 37%
TNF-α; PMA stimulated, compound 50 μM
  Percentage of inhibition of TNF-α production: 75%
TNF-α; [2]
  Percentage of inhibition of TNF-α production: 71%
TNF-α; [3]
  Percentage of inhibition of TNF-α production: 94%
IL-6; LPS stimulated, compound 10 μM
  Percentage of inhibition of IL-6 production: 13%
IL-6; LPS stimulated, compound 50 μM
  Percentage of inhibition of IL-6 production: 79%
IL-6; PMA stimulated, compound 10 μM
  Percentage of inhibition of IL-6 production: 24%
IL-6; PMA stimulated, compound 50 μM
  Percentage of inhibition of IL-6 production: 9%
IL-6; [2]
  Percentage of inhibition of IL-6 production: 59%
IL-6; [3]
  Percentage of inhibition of IL-6 production: 81%

## CC[C@H]1OC(=O)[C@H](C)[C@@H](O[C@H]2C[C@@](C)(OC)[C@@H](O)[C@H](C)O2)[C@H](C)[C@@H](O[C@@H]2O[C@H](C)C[C@H](N(C)C)[C@H]2O)[C@](C)(O)C[C@@H](C)CN(C(=S)Nc2ccccc2F)[C@H](C)[C@@H](O)[C@]1(C)O [Compound 5]
IL-8; LPS stimulated, compound 10 μM
  inhibition at 10 µM: 16%
IL-8; LPS stimulated, compound 50 μM
  inhibition at 50 µM: 42%
IL-8; PMA stimulated, compound 10 μM
  inhibition at 10 µM: 23%
IL-8; PMA stimulated, compound 50 μM
  inhibition at 50 µM: 69%
IL-8; [2]
  inhibition at 10 µM: 20%
IL-8; [3]
  inhibition at 50 µM: 46%
IL-1α; LPS stimulated, compound 10 μM
  inhibition at 10 µM: 41%
IL-1α; LPS stimulated, compound 50 μM
  inhibition at 50 µM: 10%
IL-1α; PMA stimulated, compound 10 μM
  inhibition at 10 µM: 14%
IL-1α; PMA stimulated, compound 50 μM
  inhibition at 50 µM: 14%
IL-1α; [2]
  inhibition at 10 µM: 27%
IL-1α; [3]
  inhibition at 50 µM: 41%
[1]; PHA stimulated, compound 10 μM
  inhibition at 10 µM: 0%
[1]; PHA stimulated, compound 50 μM
  inhibition at 50 µM: 72%
[1]; [4]
  inhibition at 10 µM: 20%
[1]; [5]
  inhibition at 50 µM: 87%
TNF-α; LPS stimulated, compound 10 μM
  inhibition at 10 µM: 19%
TNF-α; LPS stimulated, compound 50 μM
  inhibition at 50 µM: 45%
TNF-α; PMA stimulated, compound 10 μM
  inhibition at 10 µM: 62%
TNF-α; PMA stimulated, compound 50 μM
  inhibition at 50 µM: 85%
TNF-α; [2]
  inhibition at 10 µM: 49%
TNF-α; [3]
  inhibition at 50 µM: 76%
IL-6; LPS stimulated, compound 10 μM
  inhibition at 10 µM: 64%
IL-6; LPS stimulated, compound 50 μM
  inhibition at 50 µM: 72%
IL-6; PMA stimulated, compound 10 μM
  inhibition at 10 µM: 44%
IL-6; PMA stimulated, compound 50 μM
  inhibition at 50 µM: 60%
IL-6; [2]
  inhibition at 10 µM: 66%
IL-6; [3]
  inhibition at 50 µM: 88%
